Assay [1] relates to E. faecium isolates. In words: Minimal inhibitory concentration of antibacterial agents, "Eiken" DP42 dry plate. Format: cell-based, Enterococcus faecium. The note with it: all E. faecium (19 strains). How it is done: (§1) The sensitivity to an antibacterial agent for each of the above-described 30 Enterococcus bacterial strains was invenstigated. Specifically, the bacterial strains prepared in 1 McFarland standard with physiological saline were diluted 500-fold with a BHI culture medium, and then aerobically cultured in solid-phase wells of an “Eiken” DP42 dry plate (Eiken Chemical Co., Ltd., Tokyo, Japan) for 24 hours.
(§2) The minimal inhibitory concentration of any one of the antibacterial agents, i.e., daptomycin (DAP), vancomycin (VCM), teicoplanin (TEIC), and linezolid (LZD), was determined in accordance with the instruction of the product. […] The results obtained by testing resistance to the antibacterial agents of the E. faecalis strains (11 strains) are shown in Table 1 below.

Assay [2] concerns E. faecalis isolates. The assay is described as above. In kind it is cell-based, Enterococcus faecalis. To be noted: for MIC: Enterococcus faecalis, read-out: Minimal inhibitory concentration; for Sensitivity of strains to antibacterial agent: all E. faecalis strains (11 strains). As for the experimental part: as §1, §2
Setting [3] is: E. faecalis strain OCU009_35_10.
Where [4] appears, read: E. faecalis strain OCU031_pre_6.
Setting [5] is: E. faecalis strain OCU031_pre_7.
Where [6] appears, read: E. faecalis strain OCU031_pre_10.

Values after ≈ are worked out from the molar mass of the structure shown.

Regarding `CCCCCCCCCC(=O)N[C@@H](Cc1c[nH]c2ccccc12)C(=O)N[C@H](CC(N)=O)C(=O)N[C@@H](CC(=O)O)C(=O)N[C@@H]1C(=O)NCC(=O)N[C@@H](CCCN)C(=O)N[C@@H](CC(=O)O)C(=O)N[C@H](C)C(=O)N[C@@H](CC(=O)O)C(=O)NCC(=O)N[C@H](CO)C(=O)N[C@@H]([C@H](C)CC(=O)O)C(=O)N[C@@H](CC(=O)c2ccccc2N)C(=O)O[C@@H]1C` [daptomycin], the “Sensitivity of strains to antibacterial agent” value (“Sensitivity of strains” for short) in assay [1] and in assay [2] was “exhibited sensitivity” each time. Further, the Minimal inhibitory concentration in assay [2] (E. faecalis strain OCU009_35_4), in assay [2] (setting [3]), in assay [2] (E. faecalis strain OCU015_56_6), in assay [2] (E. faecalis strain OCU031_7_1), in assay [2] (E. faecalis strain OCU031_7_9) and in assay [2] (E. faecalis strain OCU031_14_5) was >4 µg/mL in each case. Besides, the Minimal inhibitory concentration in assay [2] (E. faecalis strain OCU031_14_8), in assay [2] (setting [4]), in assay [2] (setting [5]) and in assay [2] (setting [6]) was >4 µg/mL in each case. In assay [2] (E. faecalis strain OCU015_56_7), the MIC was > 4 µg/mL.

As for `CC(=O)NC[C@H]1CN(c2ccc(N3CCOCC3)c(F)c2)C(=O)O1` [linezolid], the “Sensitivity of strains” value in assay [1] and in assay [2] was “exhibited sensitivity” throughout. For the same molecule, the Minimal inhibitory concentration in assay [2] (E. faecalis strain OCU009_35_4), in assay [2] (setting [3]), in assay [2] (E. faecalis strain OCU015_56_6), in assay [2] (E. faecalis strain OCU031_7_1), in assay [2] (E. faecalis strain OCU031_7_9) and in assay [2] (E. faecalis strain OCU031_14_5) was 2 µg/mL (≈ 5.93 µM) each time. Moreover, the Minimal inhibitory concentration in assay [2] (E. faecalis strain OCU031_14_8), in assay [2] (setting [4]), in assay [2] (setting [5]) and in assay [2] (setting [6]) was 2 µg/mL (≈ 5.93 µM) throughout. In assay [2] (E. faecalis strain OCU015_56_7), the MIC came to 2 µg/mL (≈ 5.93 µM).

For the molecule teicoplanin, the “Sensitivity of strains” value in assay [1] and in assay [2] was “exhibited sensitivity” in each case. Further, the Minimal inhibitory concentration in assay [2] (E. faecalis strain OCU009_35_4) was 1 µg/mL; in assay [2] (setting [3]) it was 2 µg/mL; in assay [2] (E. faecalis strain OCU015_56_6) it was 0.5 µg/mL; in assay [2] (E. faecalis strain OCU015_56_7), 0.5 µg/mL; in assay [2] (E. faecalis strain OCU031_7_1) it was 2 µg/mL; in assay [2] (E. faecalis strain OCU031_7_9) it was 2 µg/mL. The Minimal inhibitory concentration in assay [2] (E. faecalis strain OCU031_14_5), in assay [2] (E. faecalis strain OCU031_14_8), in assay [2] (setting [4]), in assay [2] (setting [5]) and in assay [2] (setting [6]) was 1 µg/mL throughout.
